Assays:
Colo205 cells = assay: MTT antiproliferative assay, Colo205; assay type: cell-based; conditions: Homo sapiens, COLO 205, colon carcinoma
Description: (§1) The stock solutions of tested compounds were diluted with culture medium. […] Then, the cells were treated with compound sample at various concentrations for 48 h. Afterward, […] working solution (5 mg/ml) was added to each well and incubated for another 4 h. After incubation, the […] formed from MTT was extracted by adding DMSO (200 µl). The optical density (OD) at 490 nm and 630 nm were measured by Universal Microplate Spectrophotometer. […] The IC50 values were calculated with Origin 7.5 software (Originlab Corporation, Northampton, MA), and standard deviations of the IC50 values were obtained through at least 3 independent experiments.

[1] = test system: HDACs (HeLa nucleus extract containing a mixture of HDAC isoforms); assay: HDAC inhibitory assay with HeLa nucleus extract; conditions: at the concentration of 1 µM
OPM2 cells = assay: MTT antiproliferative assay, OPM2; assay type: cell-based; conditions: Homo sapiens, OPM-2, multiple myeloma
Description: as §1

SKOV3 cells = assay: MTT antiproliferative assay, SKOV3; assay type: cell-based; conditions: Homo sapiens, SK-OV-3, ovarian cancer
Description: as §1

K562 cells = assay: MTT antiproliferative assay, K562; assay type: cell-based; conditions: Homo sapiens, leukemia
Description: as §1

MDA-MB-468 cells = assay: MTT antiproliferative assay, MDA-MB-468; assay type: cell-based; conditions: Homo sapiens, breast carcinoma
Description: as §1

MDA-MB-231 cells = assay: MTT antiproliferative assay, MDA-MB-231; assay type: cell-based; conditions: Homo sapiens, breast carcinoma
Description: as §1

HDAC9 = HDAC9 (Homo sapiens, UniProt Q9UKV0); assay: In vitro HDACs inhibitory assay, recombinant HDAC9
Description: (§2) All of the HDAC enzymes were purchased from BPS Bioscience (San Diego, CA). Briefly, 20 μl of HeLa nucleus extract or recombinant HDAC enzyme solution was mixed with various concentrations of tested compound (20 μl). The mixture was incubated at 30 °C for 1 h (for the time-dependent assay, the mixture was incubated for 15, 30, 60, and 90 min, respectively), then 10 μl of fluorogenic substrate (Boc-Lys (acetyl)-AMC (3 mM) for HDAC1, 2, 3, and 6, Boc-Lys (trifluoroacetyl)-AMC (3 mM) for HDAC 4, 7, 8, and 9) was added. After incubation at 30 °C for 2 h, the catalytic reaction was stopped by addition of 10 μl of developer containing trypsin and trichostatin A (TSA). After 30 min, fluorescence intensity was measured using a microplate reader at excitation and emission wavelengths of 360 and 460 nm, respectively. The inhibition ratios were calculated from the fluorescence intensity readings of tested wells relative to those of control wells, and the IC50 curves and values were determined by GraphPad Prism 6.0 software (La Jolla, CA).

PNAC-1 cells = assay: MTT antiproliferative assay, PNAC-1; assay type: cell-based
Description: as §1

HDAC3 = HDAC3 (Homo sapiens, UniProt O15379); assay: In vitro HDACs inhibitory assay, recombinant HDAC3
Description: as §2

SPC-A-1 cells = assay: MTT antiproliferative assay, SPC-A-1; assay type: cell-based; conditions: SPCA1, lung cancer
Description: as §1

HDAC2 = HDAC2 (Homo sapiens, UniProt Q92769); assay: In vitro HDACs inhibitory assay, recombinant HDAC2
Description: as §2

HDAC7 = HDAC7 (Homo sapiens, UniProt Q8WUI4); assay: In vitro HDACs inhibitory assay, recombinant HDAC7
Description: as §2

HDAC4 = HDAC4 (Homo sapiens, UniProt P56524); assay: In vitro HDACs inhibitory assay, recombinant HDAC4
Description: as §2

LoVo cells = assay: MTT antiproliferative assay, LoVo; assay type: cell-based; conditions: Homo sapiens, colon carcinoma
Description: as §1

A2780 cells = assay: MTT antiproliferative assay, A2780; assay type: cell-based
Description: The stock solutions of tested compounds were diluted with culture medium. Briefly, the cells were seeded into each well of 96-well plate, which were incubated at 37 °C, 5% CO2 until confluency 90–95%. Then, the cells were treated with compound sample at various concentrations for 48 h. Afterward, […] working solution (5 mg/ml) was added to each well and incubated for another 4 h. After incubation, the […] formed from MTT was extracted by adding DMSO (200 µl). The optical density (OD) at 490 nm and 630 nm were measured by Universal Microplate Spectrophotometer. […] The IC50 values were calculated with Origin 7.5 software (Originlab Corporation, Northampton, MA), and standard deviations of the IC50 values were obtained through at least 3 independent experiments.
A series of tumour cell lines including the lung cancer A549, Calu-3, SPC-A-1, H322, H1299, breast cancer MDA-MB-231, MCF-7, MDA-MB-468, colon carcinoma LoVo, Colo205, ovarian cancer A2780, SKOV3, gastric cancer MKN45, pancreatic cancer PNAC-1, leukemic K562, and multiple myeloma OPM2 cells were cultured for the antiproliferative assay of active compound I13. In the present study, molecule I13 could inhibit the growth of both solid and haematologic tumour cell lines (Table 4). […]. The antiproliferative activity of molecule I13 was considered to be restricted by the poor enzyme inhibitory selectivity. Enhancement of selectivity could be a useful strategy to improve the anticancer activity of this group of HDACIs.

H1299 cells = assay: MTT antiproliferative assay, H1299; assay type: cell-based; conditions: Homo sapiens, NCI-H1299, lung cancer
Description: as §1

Water solubility = assay type: physicochemical
U937 cells = assay: MTT antiproliferative assay, U937; conditions: Homo sapiens, U-937, 48 h, read-out: U937 IC50
Description: (§3) The stock solutions of tested compounds were diluted with culture medium. […] Then, the cells were treated with compound sample at various concentrations for 48 h. Afterward, 20 MTT working solution (5 mg/ml) was added to each well and incubated for another 4 h. After incubation, the medium formed from MTT was extracted by adding DMSO (200 µl). The optical density (OD) at 490 nm and 630 nm were measured by Universal Microplate Spectrophotometer. […] The IC50 values were calculated with Origin 7.5 software (Originlab Corporation, Northampton, MA), and standard deviations of the IC50 values were obtained through at least 3 independent experiments.

HepG2 cells [2] = assay: Annexin V/PI cell apoptosis assay (flow cytometry); conditions: annexin V-FITC/PI
Description: After 10 min of incubation, 1 µl PI was added to each sample and mixed gently. After incubation at room temperature for another 20 min in the dark, cells were subjected to flow cytometer (CytoFLEX, Beckman Coulter, Brea, CA).

H322 cells = assay: MTT antiproliferative assay, H322; assay type: cell-based; conditions: NCI-H322, lung cancer
Description: as §1

MCF-7 cells = assay: MTT antiproliferative assay, MCF-7; assay type: cell-based; conditions: Homo sapiens, MCF7, breast carcinoma
Description: as §1

HepG2 cells [3] = assay: MTT antiproliferative assay, HepG2
Description: as §3

MKN45 cells = assay: MTT antiproliferative assay, MKN45; assay type: cell-based; conditions: Homo sapiens, MKN-45, gastric cancer
Description: as §1

A549 cells = assay: MTT antiproliferative assay, A549; assay type: cell-based; conditions: Homo sapiens, lung cancer
Description: as §1

HDAC8 = HDAC8 (Homo sapiens, UniProt Q9BY41); assay: In vitro HDACs inhibitory assay, recombinant HDAC8
Description: as §2

HDAC1 = HDAC1 (Homo sapiens, UniProt Q13547); assay: In vitro HDACs inhibitory assay, recombinant HDAC1
Description: as §2

HDAC6 = HDAC6 (Homo sapiens, UniProt Q9UBN7); assay: In vitro HDACs inhibitory assay, recombinant HDAC6
Description: as §2

Calu-3 cells = assay: MTT antiproliferative assay, Calu-3; assay type: cell-based; conditions: Homo sapiens, lung cancer
Description: as §1

U266 cells = assay: MTT antiproliferative assay, U266
Description: as §3
To evaluate the antiproliferative activity of hydroxamic acid containing molecules, MTT assays were performed using U937, U266, and HepG2 cell lines.

HDAC7, sequence (Q8WUI4 whole entry): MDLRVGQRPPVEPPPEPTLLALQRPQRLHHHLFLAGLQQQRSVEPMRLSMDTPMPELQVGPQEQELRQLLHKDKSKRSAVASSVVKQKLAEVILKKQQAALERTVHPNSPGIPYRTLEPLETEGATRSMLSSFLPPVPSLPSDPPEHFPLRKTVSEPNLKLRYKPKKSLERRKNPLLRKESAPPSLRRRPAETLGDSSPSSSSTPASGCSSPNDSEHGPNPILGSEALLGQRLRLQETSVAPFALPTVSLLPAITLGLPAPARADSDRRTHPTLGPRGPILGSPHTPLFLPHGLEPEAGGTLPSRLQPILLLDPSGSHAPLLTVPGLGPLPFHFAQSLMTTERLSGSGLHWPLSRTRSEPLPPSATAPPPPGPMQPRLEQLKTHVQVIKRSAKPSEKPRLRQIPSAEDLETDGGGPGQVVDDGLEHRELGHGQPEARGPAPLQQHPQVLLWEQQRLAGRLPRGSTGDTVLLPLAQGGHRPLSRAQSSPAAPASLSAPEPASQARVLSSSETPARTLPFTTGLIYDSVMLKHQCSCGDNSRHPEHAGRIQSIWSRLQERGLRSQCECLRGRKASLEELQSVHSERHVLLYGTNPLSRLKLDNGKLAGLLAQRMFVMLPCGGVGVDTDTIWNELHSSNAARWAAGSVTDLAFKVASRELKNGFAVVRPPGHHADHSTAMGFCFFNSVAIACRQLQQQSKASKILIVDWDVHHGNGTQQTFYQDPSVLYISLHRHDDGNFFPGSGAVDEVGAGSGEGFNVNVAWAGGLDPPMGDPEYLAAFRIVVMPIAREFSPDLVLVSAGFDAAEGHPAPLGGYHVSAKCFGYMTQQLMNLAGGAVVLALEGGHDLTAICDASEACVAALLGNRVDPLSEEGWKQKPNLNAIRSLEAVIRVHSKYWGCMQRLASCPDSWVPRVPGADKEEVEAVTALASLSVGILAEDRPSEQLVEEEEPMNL
HDAC2, sequence (Q92769 whole entry): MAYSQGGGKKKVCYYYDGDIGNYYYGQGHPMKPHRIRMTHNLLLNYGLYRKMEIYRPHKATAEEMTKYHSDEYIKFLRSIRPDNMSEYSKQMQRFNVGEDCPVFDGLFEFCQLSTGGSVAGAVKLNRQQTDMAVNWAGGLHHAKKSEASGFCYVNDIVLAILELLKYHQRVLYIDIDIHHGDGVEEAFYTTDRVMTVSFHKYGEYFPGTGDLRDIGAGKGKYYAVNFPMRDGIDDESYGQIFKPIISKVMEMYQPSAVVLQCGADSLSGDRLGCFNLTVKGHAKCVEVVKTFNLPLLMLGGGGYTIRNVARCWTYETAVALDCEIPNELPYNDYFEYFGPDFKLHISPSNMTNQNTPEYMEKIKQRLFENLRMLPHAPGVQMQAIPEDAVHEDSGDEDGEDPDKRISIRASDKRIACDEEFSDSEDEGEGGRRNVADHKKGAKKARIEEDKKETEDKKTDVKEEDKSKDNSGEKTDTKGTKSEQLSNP
HDAC8, sequence (Q9BY41 whole entry): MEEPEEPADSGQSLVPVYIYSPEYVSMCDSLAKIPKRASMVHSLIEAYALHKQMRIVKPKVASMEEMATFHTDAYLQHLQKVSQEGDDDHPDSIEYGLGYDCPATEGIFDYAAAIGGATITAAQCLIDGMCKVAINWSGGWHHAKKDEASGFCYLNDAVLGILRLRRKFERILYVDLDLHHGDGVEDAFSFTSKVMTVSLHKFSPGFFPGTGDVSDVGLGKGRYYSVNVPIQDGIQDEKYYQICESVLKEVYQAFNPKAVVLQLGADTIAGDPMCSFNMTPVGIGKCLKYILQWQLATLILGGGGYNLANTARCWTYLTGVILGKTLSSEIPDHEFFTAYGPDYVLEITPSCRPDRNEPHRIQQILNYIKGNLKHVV
HDAC4, sequence (P56524 whole entry): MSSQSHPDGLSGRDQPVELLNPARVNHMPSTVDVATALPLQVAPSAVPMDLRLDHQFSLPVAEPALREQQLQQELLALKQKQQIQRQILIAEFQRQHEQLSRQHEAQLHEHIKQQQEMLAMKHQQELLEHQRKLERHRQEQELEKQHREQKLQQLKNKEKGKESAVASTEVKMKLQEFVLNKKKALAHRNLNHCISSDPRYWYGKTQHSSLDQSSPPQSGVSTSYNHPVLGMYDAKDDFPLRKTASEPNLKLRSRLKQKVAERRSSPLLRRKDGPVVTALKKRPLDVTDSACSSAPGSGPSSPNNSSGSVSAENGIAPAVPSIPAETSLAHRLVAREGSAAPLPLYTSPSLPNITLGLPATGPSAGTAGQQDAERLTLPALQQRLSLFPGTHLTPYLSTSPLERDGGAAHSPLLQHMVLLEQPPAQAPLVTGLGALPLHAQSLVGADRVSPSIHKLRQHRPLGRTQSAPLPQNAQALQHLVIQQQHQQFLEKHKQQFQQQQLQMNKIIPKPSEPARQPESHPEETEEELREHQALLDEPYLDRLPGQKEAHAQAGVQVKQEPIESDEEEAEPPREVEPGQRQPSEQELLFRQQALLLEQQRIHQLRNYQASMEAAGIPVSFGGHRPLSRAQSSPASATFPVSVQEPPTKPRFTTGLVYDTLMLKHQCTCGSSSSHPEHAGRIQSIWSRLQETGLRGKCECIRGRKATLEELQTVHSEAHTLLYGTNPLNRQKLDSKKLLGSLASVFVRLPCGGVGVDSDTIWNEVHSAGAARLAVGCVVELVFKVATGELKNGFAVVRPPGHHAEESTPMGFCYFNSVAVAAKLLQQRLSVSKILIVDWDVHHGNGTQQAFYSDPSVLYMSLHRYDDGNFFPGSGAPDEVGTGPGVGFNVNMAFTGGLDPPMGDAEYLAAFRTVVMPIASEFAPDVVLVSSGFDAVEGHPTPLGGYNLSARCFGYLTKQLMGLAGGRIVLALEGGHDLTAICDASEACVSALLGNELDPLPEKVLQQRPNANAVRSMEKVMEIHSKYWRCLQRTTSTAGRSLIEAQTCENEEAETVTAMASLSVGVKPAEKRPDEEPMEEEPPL
HDAC6, sequence (Q9UBN7 whole entry): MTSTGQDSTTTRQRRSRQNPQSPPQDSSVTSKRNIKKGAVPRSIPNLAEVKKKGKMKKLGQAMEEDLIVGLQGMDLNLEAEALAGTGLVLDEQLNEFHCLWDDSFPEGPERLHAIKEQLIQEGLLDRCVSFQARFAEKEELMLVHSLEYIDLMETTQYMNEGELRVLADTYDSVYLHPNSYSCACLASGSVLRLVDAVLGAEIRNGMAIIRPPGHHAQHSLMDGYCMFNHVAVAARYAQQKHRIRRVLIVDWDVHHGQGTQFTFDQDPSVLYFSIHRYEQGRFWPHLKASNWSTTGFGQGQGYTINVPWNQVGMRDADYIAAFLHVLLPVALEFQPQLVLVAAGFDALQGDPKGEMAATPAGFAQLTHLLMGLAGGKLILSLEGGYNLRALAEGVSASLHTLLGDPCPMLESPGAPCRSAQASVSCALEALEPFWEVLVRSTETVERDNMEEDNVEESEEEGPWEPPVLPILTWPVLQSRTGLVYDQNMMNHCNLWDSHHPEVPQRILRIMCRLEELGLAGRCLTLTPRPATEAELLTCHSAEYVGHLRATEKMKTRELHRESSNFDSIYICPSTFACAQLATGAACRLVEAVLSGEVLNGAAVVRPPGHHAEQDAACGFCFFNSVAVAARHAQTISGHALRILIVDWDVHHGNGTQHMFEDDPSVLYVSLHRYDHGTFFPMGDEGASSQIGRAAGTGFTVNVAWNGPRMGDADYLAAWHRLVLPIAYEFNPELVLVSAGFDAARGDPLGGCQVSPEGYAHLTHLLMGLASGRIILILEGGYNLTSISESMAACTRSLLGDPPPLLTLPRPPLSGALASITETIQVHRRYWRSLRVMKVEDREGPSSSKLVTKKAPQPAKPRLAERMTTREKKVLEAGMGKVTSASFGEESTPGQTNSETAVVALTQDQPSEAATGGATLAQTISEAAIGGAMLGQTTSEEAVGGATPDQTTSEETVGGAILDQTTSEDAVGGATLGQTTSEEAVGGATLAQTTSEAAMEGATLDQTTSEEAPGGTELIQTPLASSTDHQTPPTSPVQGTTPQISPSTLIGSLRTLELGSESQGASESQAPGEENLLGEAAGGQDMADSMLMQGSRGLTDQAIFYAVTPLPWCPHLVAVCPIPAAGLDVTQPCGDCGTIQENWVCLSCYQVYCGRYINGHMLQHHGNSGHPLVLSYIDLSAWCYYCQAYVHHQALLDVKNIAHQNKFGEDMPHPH
HDAC1, sequence (Q13547 whole entry): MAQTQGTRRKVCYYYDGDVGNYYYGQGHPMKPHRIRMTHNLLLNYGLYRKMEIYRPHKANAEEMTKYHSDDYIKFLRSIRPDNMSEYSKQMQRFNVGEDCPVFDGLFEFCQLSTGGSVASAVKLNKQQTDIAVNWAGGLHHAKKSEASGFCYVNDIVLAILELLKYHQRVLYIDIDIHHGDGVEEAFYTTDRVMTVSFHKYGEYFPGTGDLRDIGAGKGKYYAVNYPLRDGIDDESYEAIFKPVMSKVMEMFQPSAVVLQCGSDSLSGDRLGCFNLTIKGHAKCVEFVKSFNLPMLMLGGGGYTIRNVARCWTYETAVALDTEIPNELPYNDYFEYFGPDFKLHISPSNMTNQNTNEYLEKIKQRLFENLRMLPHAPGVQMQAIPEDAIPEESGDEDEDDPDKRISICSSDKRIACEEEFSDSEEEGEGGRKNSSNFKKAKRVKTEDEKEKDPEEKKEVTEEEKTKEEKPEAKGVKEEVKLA

Cn1cc(CCCC(=O)Nc2ccc(C(=O)NO)cc2)c2ccccc21 [Compound I13, 4-(4-(1-Methyl-1H-indol-3-yl)butanamido)-N-hydroxybenzamide]
IC50 (Colo205 cells): 2420 nM
HDACs, percentage inhibition rate (PIR) [1]: 82.19 ± 1.60%
IC50 (OPM2 cells): 230 nM
IC50 (SKOV3 cells): 1440 nM
IC50 (K562 cells): 2870 nM
IC50 (MDA-MB-468 cells): 1340 nM
IC50 (MDA-MB-231 cells): 780 nM
IC50 (HDAC9): > 5 µM
IC50 (PNAC-1 cells; pancreatic cancer, MTT): 1170 nM
fold more active than SAHA, PNAC-1 cells (PNAC-1 cells; ratio of IC50 values): 5.6 fold
IC50 (HDAC3): 12.1 nM
IC50 (SPC-A-1 cells): 810 nM
IC50 (HDAC2): 49.9 nM
IC50 (HDAC7): 326 nM
IC50 (HDAC4): > 5 µM
IC50 (LoVo cells): 2190 nM
IC50 (A2780 cells; Homo sapiens, A2780, ovarian cancer, MTT, read-out: A2780 IC50): 4.6 µM
fold more active than SAHA, A2780 cells (A2780 cells; ratio of IC50 values): 5.9 fold
IC50 (H1299 cells): 7.67 µM
water solubility (Water solubility): good water solubility
IC50 (U937 cells): 930 ± 80 nM
ratio of apoptotic cells (HepG2 cells [2]; HepG2, 0.2 µM, 24 h): 11.56%
flow cytometry quadrant Q1-LL (HepG2 cells [2]; HepG2, 0.2 μM): 88.42%
flow cytometry quadrant Q1-LR (HepG2 cells [2]; HepG2, 0.2 μM): 6.12%
flow cytometry quadrant Q1-UL (HepG2 cells [2]; HepG2, 0.2 μM): 0.02%
flow cytometry quadrant Q1-UR (HepG2 cells [2]; HepG2, 0.2 μM): 5.44%
flow cytometry quadrant Q1-LL (HepG2 cells [2]; HepG2, 0.8 μM): 67.38%
flow cytometry quadrant Q1-LR (HepG2 cells [2]; HepG2, 0.8 μM): 21.27%
flow cytometry quadrant Q1-UL (HepG2 cells [2]; HepG2, 0.8 μM): 0.07%
flow cytometry quadrant Q1-UR (HepG2 cells [2]; HepG2, 0.8 μM): 11.28%
IC50 (H322 cells): 14.9 µM
IC50 (MCF-7 cells): 6.34 µM
IC50 (HepG2 cells [3]; Homo sapiens, HepG2, 48 h, read-out: HepG2 IC50): 1850 ± 310 nM
fold more active than SAHA, HepG2 cells (HepG2 cells [3]; ratio of IC50 values): 4.7 fold
toxic signs in liver and spleen (HepG2 xenograft; 50 mg/kg/d intragastric, 16 days): no obvious toxic signs in liver and spleen were detected
tumour inhibitory ratio (HepG2 xenograft; 50 mg/kg/d intragastric, 16 days, HepG2 xenograft): 33.1%
mean weight of tumours (HepG2 xenograft; 50 mg/kg/d intragastric, 16 days, HepG2 xenograft, n = 7): 0.303 g
mice body weight loss (HepG2 xenograft; mouse, in vivo): No evidence of mice body weight (measured every two days) loss
IC50 (MKN45 cells): 18.2 µM
IC50 (A549 cells): 3.15 µM
IC50 (HDAC8): 284 nM
IC50 (HDAC1): 13.9 nM
IC50 (HDAC6): 7.71 nM
IC50 (Calu-3 cells): 1260 nM
IC50 (U266 cells; Homo sapiens, U-266, 48 h, read-out: U266 IC50): 160 ± 40 nM
fold more active than SAHA, U266 cells (U266 cells; ratio of IC50 values): 5.5 fold

From paper PMC7822065, “Discovery of indole-3-butyric acid derivatives as potent histone deacetylase inhibitors” (Journal of Enzyme Inhibition and Medicinal Chemistry, 2021)
